Laboratory results published in US5463052A, “Method for producing benzylidene derivatives” (Shionogi & Co., Ltd., priority 1993, dated 1995).

How the values were obtained:
Assay type in all cases: cell-based
[1] = system: production of PGE2 in rat synovial membrane cells; assay: inhibitory activity against the production of PGE2 in rat synovial membrane cells (Rat SVC)
Excerpt: (§1) These benzylidene derivatives of the formula III can be prepared in a conventional manner, for example, according to the following reaction scheme. [drawing 5] In the reaction scheme above, R is a as defined above and R^3 is hydroxy-protecting group in EP patent application No. 93308369.3 (Publication No. 595546) corresponding to U.S. patent application No. 08/142,146. Thus, hydroxy-protected 3,5-di-tert-butyl-4-hydroxybenzaldehyde 4 is reacted with γ-sultam derivative 2 under a conditions for aldol reaction to obtain an aldol addition compound 5. The compound […], when deprotected and dehydrated in the presence of an acid, gives the objective benzylidene derivative 3' as a mixture of stereoisomers in (E)- and (Z) forms, which is then subjected to resolution, when a given isomer is desired.

[2] = system: production of LTB4 in rat celiac cells; assay: inhibitory activity against the production of LTB4 in rat celiac cells (Rat PEC)
Excerpt: as §1

[3] = system: production of IL-1 in THP-1 cells; assay: inhibitory activity against the production of IL-1 under LPS stimulation in THP-1 cells; details: Homo sapiens, read-out: L-1 (THP-1) IC50
Excerpt: as §1

IC50 [1] | IC50 [2] | IC50 [3] | SMILES
< 0.001 µM | 2.8 µM | 21 µM | CN1CC/C(=C\c2cc(C(C)(C)C)c(O)c(C(C)(C)C)c2)S1(=O)=O [(E), (E)-5-(3,5-di-tert-Butyl-4-hydroxybenzylidene)-2-methyl-1,2-isothiazolidine-1,1-dioxide]
< 0.001 µM | 1.8 µM | 29 µM | CN1CC/C(=C/c2cc(C(C)(C)C)c(O)c(C(C)(C)C)c2)S1(=O)=O [(Z), 5-(3,5-di-tert-butyl-4-hydroxybenzylidene)-2-methyl-1,2-isothiazolidine-1,1-dioxide]
